System: fadA
Assay: RT-PCR of virulence factors in multi-species biofilm
Format: cell-based, Fusobacterium nucleatum
Settings: relative to ET-22 viable bacteria (ET22-L) and ET-22 heat-inactivated bacteria (ET22-HK)
Procedure: 100 µl of saliva was added to a 24-well plate, then 100 µl of the corresponding concentration solution was added respectively to the experimental groups, and finally 800 µl of SHI medium was added. The plate was placed in an anaerobic box and cultured anaerobically at 37°C for 10 hours. Then, the supernatant was discarded, and the multi-species biofilm adhered to the well plate was obtained. After discarding the supernatant from the incubated biofilm, the biofilm adhered to the bottom of the well plate was re-suspended with sterile water by pipetting, transferred to a 1.5 ml centrifuge tube, and stored until gene sequencing was performed.
This example evaluated the effects of lysate, NAD, 2-hydroxy-3-phenylpropionic acid, polypeptide GP(Hyp)GAG, and peptidoglycan on halitosis virulence factors, including cdl, fadA, mgl, and gtfb. The gene cdl can regulate the expression of L-cysteine […], which can catalyze the degradation of protein substrate to produce VSC, thereby causing halitosis. Fusobacterium nucleatum secretes an amyloid-like adhesin (fadA) via the fap2-like autotransporter protein to enhance its virulence. […]
After the sample RNA was reverse-transcribing into cDNA, RT-PCR reaction was performed to detect biofilm-related virulence factors. Experimental results were calculated using the 2^-△△CT method. […]

## O=C(O)C(O)Cc1ccccc1 (stereo not shown) [2-hydroxy-3-phenylpropionic acid]
  inhibitory effect on the expression of virulence factor fadA: better

From patent EP4772186A1, “USE AND COMPOSITION OF POSTBIOTIC OF LACTOBACILLUS PARACASEI ET-22” (Inner Mongolia Yili Industrial Group Co., Ltd., priority 2023, dated 2025)
